Structure (SMILES) | logP
CC1NC(=O)NC1=O (configuration not stated) | -0.95
O=C1CNC(=O)N1 | -1.53
CC(C)CC1NC(=O)NC1=O (configuration not stated) | 0.35
CC(C)C1NC(=O)NC1=O (configuration not stated) | -0.36
CCN1C(=O)NC(Cc2ccccc2)C1=O (configuration not stated) | 1.61
O=C1CNC(=O)N1Cc1ccccc1 | 0.82

Continued, values first:

logP | Structure (SMILES)
0.14 | CN1CC(=O)N(c2ccccc2)C1=O
2.46 | O=C1NC(=O)C(Cc2ccccc2)(Cc2ccccc2)N1
2.84 | O=C1NC(Cc2ccccc2)C(=O)N1Cc1ccccc1 (configuration not stated)
1.69 | CCC1(c2ccccc2)NC(=O)N(C)C1=O (configuration not stated)
2.27 | O=C1NC(Cc2ccccc2)C(=O)N1c1ccccc1 (configuration not stated)
2.28 | CN1C(=O)NC(c2ccccc2)(c2ccccc2)C1=O
